{"source": "patent US20070254055A1", "about": "“Therapeutic Avenanthramide Compounds” (TRUSTEES OF TUFTS COLLEGE, priority 2003, published 2007)", "key": {"p21cip1": {"system": "p21cip1", "test": "p21cip1 expression Western blot, A10 cells", "type": "cell-based, rat", "settings": "10% FBS, 20 h, highest level at 120 μM", "description": "(§1) Protein from 5×10^4 cells was subjected to electrophoresis on 7.5-10% SDS-polyacrylamide gels and electro-transferred to nirocellulose membrane. Nonspecific binding was blocked by incubating with Tris-buffered saline (TBS) [137 mM NaCl, and 15 mM Tris-HCl (pH 7.6)] containing 5% non-fat milk (w/v) for 1 h at room temperature and then probed with primary antibody against p53, p21, p27, cyclin D1 and pRb overnight. After washing in TBS-Tween 20 buffer (0.075% v/v), the membranes were incubated with horseradish peroxidase-conjugated anti-IgG antibody. Proteins bound to the primary antibodies were detected with ECL detection reagents.\nCyclin-dependent kinase (cdk) inhibitors play important roles in cell cycle progression. P21cip1 is the main target of p53 medicated cell cycle inhibition. […] The effect of Avn on this CDK inhibitor p21cip1 protein expression was determined by Western blotting. A10 cells were synchronized by growning in FBS-free medium for 24 h. The cells were then stimulated with 10% FBS in the absence or presence of different concentrations of substantially purified Avn-C. After 20 h, total cell lysates were prepared and subjected to SDS-PAGE followed by Western blot analysis to detect p21cip and p27kip. β-Actin expression was used as loading control. […]"}, "[1]": {"system": "human aortic smooth muscle cells (HSMC)", "test": "FBS-induced [3H] thymidine incorporation in HSMC", "type": "cell-based", "description": "Synthetic Av-C was used in this experiment. […] The inhibitory effect of Avenanthramide was concentration-dependent."}, "A10 SMC": {"system": "A10 SMC", "test": "Cell cycle distribution by flow cytometry, A10 cells", "type": "cell-based, rat", "settings": "120 μM, 48 h", "description": "At 50% confluence (exponentially growing phase), A10 cells were seeded into 100 mm culture dishes and were treated with different concentrations of Avn for 48 h. Cells were then harvested by trypsin/EDTA treatment, washed with PBS and fixed with 70% ethanol at 4° C. for 1 hr. Prior to analysis, cells were washed again with PBS and stained with 1.0 mL of propidium iodide (PI) solution containing 25 μg/mL PI and 10 μg/mL RNase in PBS at 4° C. for 30 min in the dark. Cell cycle distributions were then analyzed by flow cytometry using the fluorescence-activated cell sorting (FACS) analysis. To calculate percentage of cells in respective phases of the cell cycle the DNA content frequency histograms were deconvoluted. Based on the DNA content, the cell cycle can be distinguished from G1 to S and G2-M phase."}, "p53": {"system": "p53", "test": "p53 protein level Western blot, A10 cells", "type": "cell-based, rat", "description": "as §1\nInduction of the tumor suppressor p53 has been implicated in the control of cell growth of SMC, and some antioxidants in green tea or red wine can increase the p53 protein expression level. Therefore, the effect of substantially purified Avn-C treatment on p53 protein levels was explored. A10 cells were seeded into 100 mm Petri dishes and grown in 10% FBS culture medium until 70% confluence. Cells were either left untreated or treated with different concentrations of Avn (0-120 uM), and the cells were harvested after 24 h. Whole cell lysates were prepared and subjected to Western blot analysis for p53 and β-actin levels."}, "[2]": {"system": "A10 cells (rat embryonic aortic smooth muscle cell)", "test": "Cell number counting, A10 cells", "type": "cell-based", "procedure": "(§3) HSMC or A10 cells (rat embryonic aortic smooth muscle cell) were seeded into 6-well plate at a density of 0.5×10^4/well. Four hr later 120 μM of avenanthramide were added to each well. At different time points (2d, 3d and 4d) the cells were trypsinzied and the total cell number were counted using a hemocytometer. Trypan blue exclusion test was carried out to determine the cell viability."}, "NO production of HSMC": {"system": "NO production of HSMC", "test": "NO production, DAF-2 fluorescence assay, HSMC", "type": "cell-based, human", "description": "(§2) In addition to its vasodilating feature, NO has antiatherosclerotic properties, such as prevention of platelet aggregation, leukocyte adhesion, smooth muscle cell proliferation, and the expression of genes involved in atherogenesis. In this study, the human aortic smooth muscle cells (HSMC) and human aortic endothelia cells (HEC) were used to determine if avenanthramides can influence the NO production level. Synthetic Av-C was used in this experiment. The quantification of NO production was performed by the 4,5 diaminofluorescein (DAF-2) fluorescence assay. Briefly, cells were seeded into 24-well plate and let them grow to 90% confluent condition. The cells were pretreated with different concentrations of Avenanthramide for 24 h. The culture medium was then changed to PBS containing 100 μM L-arginine, 1 μM bradykinin and L-NAME. Then 0.1 μM of DAF-2 was added to each well. After another 2 h of incubation, 200 μL of supernatants were transferred to black microplates and the fluorescence was measured with a fluorescence microplate reader calibrated for excitation at 485 nm and emission at 538 nm."}, "eNOS mRNA": {"system": "eNOS mRNA", "test": "eNOS mRNA expression level by real time PCR", "type": "cell-based, human", "description": "Since NO is catalyzed by endothelium nitric oxide synthases (eNOS), the role of Avenanthramide in induction of eNOS expression level by real time PCR was examined. Total mRNA was extracted using RNesy Mini Kit (QIAGEN) and quantified spectrophotometrically at 260 nm. Twenty μl of first-strand cDNA was synthesized from 1.5 μg of total RNA by using 300 ng of random hexanucleotide primers and 200u of SuperScript II (Invitrogen) at 42 C. for 1 h followed by heat inactivation of reverse transcriptase at 70 C. for 15 min. Fifty μL of PCR reaction mixture contained 5 μL cDNA, up- and down-stream primers (200 nM) and 25 μL of SYBR Green was set up into the ABI 4400 to perform the amplification for 40 cycles with denaturation at 95 C. for 30 sec, annealing at 60 C. for 1 min and extension at 72 C. for 1 min. Primers designed based on the published gene sequences were synthesized from Tufts University Core Facility. The primer sequences used for eNOS were:\nBeta-actin mRNA expression level as an internal control. […] The enhancing effect is dose-dependent and the pattern is consistent with the results from NO production (FIG. 3)."}, "[3]": {"system": "human aortic smooth muscle cells (HSMC)", "test": "Cell number counting, HSMC", "type": "cell-based", "settings": "120 μM", "procedure": "as §3"}, "NO production of HAEC": {"system": "NO production of HAEC", "test": "NO production, DAF-2 fluorescence assay, HAEC", "type": "cell-based, human", "settings": "120 μM, 24 h", "description": "as §2"}, "U937 cells": {"system": "U937 cells", "test": "Hydrogen peroxide-induced ROS production in U937 cells (DCHF)", "type": "cell-based, human", "settings": "18 h pretreatment", "description": "Pretreatment of H2O2-stimulated U937 cells with 1, 5, and 10 μM of Avn reduced the ROS production by 22, 50, and 76%, respectively, indicating the inhibitory effect is dose-dependent."}}, "data": [{"smiles": "O=C(/C=C/c1ccc(O)c(O)c1)Nc1ccc(O)cc1C(=O)O", "note": "[Avn-C, Avenanthramide C]", "values": [{"measurement": "p21 expression level", "setting": "p21cip1", "result": "increased significantly"}, {"measurement": "inhibition of cell proliferation (serum-induced DNA synthesis)", "setting": "[1]; 120 μM, 10% FBS, 24 h", "result": "more than 50%"}, {"measurement": "IC50", "setting": "[1]; [3H] thymidine incorporation and cell number counting, read-out: IC50, serum-induced HASMC proliferation", "result": "~50", "unit": "µM"}, {"measurement": "population of cells in G0/G1-phase", "setting": "A10 SMC; growing cells (control 49.7%)", "result": 66.9, "unit": "%"}, {"measurement": "population of cells in S-phase", "setting": "A10 SMC; growing cells (control about 40%)", "result": 25.7, "unit": "%"}, {"measurement": "increase of p53 protein level", "setting": "p53", "result": "up to 3 fold"}, {"measurement": "p53 protein levels", "setting": "p53; 0-120 uM, 24 h", "result": "dose-dependent increase"}, {"measurement": "reduction in cell proliferation", "setting": "[2]; 120 μM", "result": 50, "unit": "%"}, {"measurement": "doubling time", "setting": "[2]; A10, 120 μM", "result": "more than 48 hr"}, {"measurement": "increase of NO production", "setting": "NO production of HSMC; 80 μM, HASMC", "result": 2.1, "unit": "fold"}, {"measurement": "increase in NO production compared with control", "setting": "NO production of HSMC; 120 μM, 24 h, HSMC", "result": 3.0, "unit": "folds"}, {"measurement": "increase of eNOS mRNA expression level", "setting": "eNOS mRNA; 80 μM, HASMC", "result": 3.5, "unit": "fold"}, {"measurement": "Fold Change, eNOS mRNA expression level", "setting": "eNOS mRNA; Av. Con. 40 μM", "result": 1.56}, {"measurement": "ΔCt eNOS-β-actin", "setting": "eNOS mRNA; Av. Con. 40 μM", "result": "7.0 ± 0.51"}, {"measurement": "Fold Change, eNOS mRNA expression level", "setting": "eNOS mRNA; Av. Con. 80 μM", "result": 2.39}, {"measurement": "ΔCt eNOS-β-actin", "setting": "eNOS mRNA; Av. Con. 80 μM", "result": "6.41 ± 0.48"}, {"measurement": "inhibition of cell growth", "setting": "[3]; 4 days", "result": "more than 50%"}, {"measurement": "doubling time", "setting": "[3]; HSMC", "result": "more than 48 hr"}, {"measurement": "increase in NO production compared with control", "setting": "NO production of HAEC", "result": 8.8, "unit": "folds"}, {"measurement": "reduction of H2O2-induced ROS production", "setting": "U937 cells; 1 μM", "result": 22, "unit": "%"}, {"measurement": "reduction of H2O2-induced ROS production", "setting": "U937 cells; 5 μM", "result": 50, "unit": "%"}, {"measurement": "reduction of H2O2-induced ROS production", "setting": "U937 cells; 10 μM", "result": 76, "unit": "%"}]}]}
